Measured values as given in US20250213647A1, “CHEMOKINE RECEPTORS AND ALPHA1 ADRENERGIC RECEPTORS/VASOPRESSIN RECEPTORS 1A HETEROMERS AS DRUG TARGETS FOR DISEASE” (UNIVERSITY OF SOUTH FLORIDA, priority 2022, published 2025).

Legend:
[1] = system: THP-1 cells (CCR2-mediated Gαi signaling); test: Cyclic AMP measurement in forskolin-stimulated THP-1 cells; type: cell-based, human; details: forskolin-stimulated THP-1 cells; 1 μM PE, 1 μM PT or 100 nM NE; 15 min at 37° C.; FIG. 4G, 4H
Experimental: Cyclic AMP amounts were measured using the cAMP complete enzyme immunoassay kit, acetylated format (Enzo Life Sciences). 4×10^5 cells were incubated with forskolin/isobutylmethylxanthine (10 μM/0.5 mM final concentrations) in 0.1% BSA/10 mM Hepes-buffered RPMI and treated with CCL2 in the presence or absence of 1 μM PE, 1 μM PT or 100 nM NE at 37° C. for 15 min. The cells were lysed by incubating with 0.1 M HCl at room temperature for 20 min. The cAMP amounts in the lysate supernatant were measured following the manufacturer's instructions.

[2] = target: T1, CCR2 (Homo sapiens, UniProt P41597); test: PRESTO-Tango β-arrestin recruitment assay, HTLA cells with CCR2-Tango plus pcDNA3; type: cell-based; details: absence of α1b-AR; FIG. 5A
Experimental: (§1) The assays were performed as described previously (Albee, 2017; Gao, 2022; Albee, 2018; Eby, 2017; Cheng, 2017). HTLA cells were seeded in a 6-well plate and transfected with 750 ng FLAG-CCR2-Tango together with 750 ng pcDNA3.1 or HA-α1b-AR using TransIT-2020 Transfection Reagent. The next day, cells (75,000 cells/well) were plated onto poly-L-Lysine pre-coated 96-well plates and allowed to attach to the plate surface for at least 4 hours prior to treatment. Cells were treated with receptor ligands at the concentrations indicated in the figure legends for 2 h and then replaced with fresh full medium and incubated overnight at 37° C., 5% CO2 in a humidified environment. The following morning, medium was replaced with a 100 μL 1:10 mixture of Bright-Glo (Promega) and PBS. Plates were then incubated at room temperature for 10 min before measuring luminescence on a Biotek Synergy II plate reader. Relative luminescence units (RLU) are expressed as fold changes of RLU vs unstimulated cells.

[3] = system: CCR1; test: Chemotaxis assay, THP-1 cells toward CCL23 (CCR1-mediated); type: cell-based, human; details: CCL23 10 nM, mean±SE, read-out: IC50 for inhibition of CCR1-mediated chemotaxis
Experimental: (§2) Cell migration was measured employing the Neuroprobe (Gaithersburg, MD, USA) ChemoTx® Disposable Chemotaxis System. A 96-well Boyden-chamber (30 μL/well, 8 μm pores, 1×10^5 pores/cm^2 pore density) was selected for all chemotaxis experiments. Bottom wells of the Boyden-chamber were loaded with 30 μL of test substances at various concentrations. Top wells of the membrane were loaded with 25 μL of THP-1 cells, THP-1_ADRA1B^KO, wild type THP-1 cells after clonal expansion (=control for THP-1_ADRA1B^KO) or freshly isolated monocytes (200 cells/μL). THP-1 cells were suspended in depleted RPMI1640 (0.5% HyClone™ fetal bovine serum, Sigma); Freshly isolated monocytes were suspended in RPMI1640 (0.5% human platelet poor plasma, Sigma). After 3 hours, transmigrated cells were counted utilizing the Cytation 1 plate reader (BioTek) by direct imaging in high contrast bright field (4×) and post-imaging particle analyses with Gen5 (v3.05) Imaging & Microscopy Software (BioTek). The chemotactic index (CI) was calculated as the ratio of cells that transmigrated in the presence versus the absence of the test solutions.

[4] = system: CXCR4; test: Chemotaxis assay, THP-1 cells toward CXCL12 (CXCR4-mediated); type: cell-based, human; details: CXCL12 100 nM, mean±SE, read-out: IC50 for inhibition of CXCR4-mediated chemotaxis
Experimental: as §2

[5] = system: CCR8; test: Chemotaxis assay, THP-1 cells toward CCL1 (CCR8-mediated); type: cell-based, human
Experimental: as §2

[6] = system: CR heteromerization partners of α1B/D-ARs (CCR1, CCR2, CXCR4); test: Chemotaxis assay, THP-1 cells, CR heteromerization partners of α1B/D-ARs taken together; type: cell-based, human; details: for chemotactic dose-responses for CCL23, CCL2 and CXCL12 in the presence of the ligand: 10 μM of phenylephrine or phentolamine, FIG. 17G-17I
Experimental: as §2

[7] = system: CXCR4; details: previous observations (Gao, 2018); cited from earlier work
[8] = target: T1, CCR2; test: Chemotaxis assay, THP-1 cells toward CCL2 (CCR2-mediated); type: cell-based; set-up: host or cells: THP-1; details: CCL2 10 nM, mean±SE, read-out: IC50 for inhibition of CCR2-mediated chemotaxis
Experimental: as §2

[9] = target: CCR2:α1b-AR heteromers (Homo sapiens, UniProt P35368+P41597); test: PRESTO-Tango β-arrestin recruitment assay, HTLA cells with CCR2-Tango plus α1b-AR; type: cell-based; set-up: Tango module of the TANGO vector (C); expressed in transfected cells; host or cells: HTLA
Experimental: as §1

[10] = target: T2, heteromerization between α1b-AR and CCR2 (Homo sapiens, UniProt P35368); test: Saturation BRET to assess receptor heterodimerization (α1b-AR-RlucII / CCR2-EYFP, HEK293T); details: 10 μM ligand, 5 min; for BRETmax: FIG. 3B; for BRET50 values: FIG. 3C
T2 sequence (P35368 1-520): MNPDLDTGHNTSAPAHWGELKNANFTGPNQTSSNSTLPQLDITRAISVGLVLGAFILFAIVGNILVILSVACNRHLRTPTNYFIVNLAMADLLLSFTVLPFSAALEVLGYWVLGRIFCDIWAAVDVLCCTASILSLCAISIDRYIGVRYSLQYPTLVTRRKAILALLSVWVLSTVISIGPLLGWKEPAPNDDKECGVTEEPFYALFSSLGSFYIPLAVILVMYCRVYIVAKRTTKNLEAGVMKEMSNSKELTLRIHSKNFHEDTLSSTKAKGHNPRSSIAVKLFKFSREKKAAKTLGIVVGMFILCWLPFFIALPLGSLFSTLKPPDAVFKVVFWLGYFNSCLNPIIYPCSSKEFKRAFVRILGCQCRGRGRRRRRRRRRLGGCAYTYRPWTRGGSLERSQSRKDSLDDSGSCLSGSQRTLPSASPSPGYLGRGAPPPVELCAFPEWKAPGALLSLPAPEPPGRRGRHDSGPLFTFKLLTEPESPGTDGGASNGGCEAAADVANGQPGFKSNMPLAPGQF

T1 sequence (P41597 whole entry): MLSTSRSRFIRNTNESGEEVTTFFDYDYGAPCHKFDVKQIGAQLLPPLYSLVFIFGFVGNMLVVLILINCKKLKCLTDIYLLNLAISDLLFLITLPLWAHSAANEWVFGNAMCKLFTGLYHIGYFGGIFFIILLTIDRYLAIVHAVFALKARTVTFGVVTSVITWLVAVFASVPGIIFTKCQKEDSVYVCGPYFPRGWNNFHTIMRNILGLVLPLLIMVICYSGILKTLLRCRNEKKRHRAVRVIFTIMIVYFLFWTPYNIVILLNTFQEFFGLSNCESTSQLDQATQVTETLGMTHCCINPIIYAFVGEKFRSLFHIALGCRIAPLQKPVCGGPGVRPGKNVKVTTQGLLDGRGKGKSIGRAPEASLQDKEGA
Chain of CCR2:α1b-AR heteromers (P41597 whole entry, one chain of several): as the sequence (P41597 whole entry) above

effect on CCL2-induced β-arrestin recruitment to CCR2 ([9]; 1 μM PT, FIG. 5B) | β-arrestin recruitment to CCR2-Tango by the ligand ([9]; cells co-transfected with CCR2-Tango plus α1b-AR, FIG. 5A) | Structure (SMILES) | effect on the effects of CCL2 on cAMP production [1] | β-arrestin recruitment to CCR2-Tango by the ligand [2] | IC50 [3] [nM] | IC50 [4] [nM] | CCR8-mediated chemotaxis [5] | chemotactic dose-responses for CCL23, CCL2 and CXCL12 in the presence of the ligand [6] | inhibition of chemotaxis mediated via CR heteromerization partners of α1B/D-ARs ([6]; FIG. 17A) | CXCR4-mediated chemotaxis of primary human vascular smooth muscle cells [7] | IC50 [8] [nM] | efficacy to induce β-arrestin recruitment to CCR2 ([9]; agonist alone) [fold change RLU] | increase of the efficacy of CCL2 to recruit β-arrestin to CCR2 ([9]; co-stimulated with CCL2 and 1 μM PE vs CCL2 alone) [fold] | efficacy of CCL2 to recruit β-arrestin to CCR2 in the presence of the ligand ([9]; co-stimulated with CCL2 and 1 μM PE, FIG. 5B) [fold change RLU] | BRETmax [10] | BRET50 values [10]
 |  | CNC[C@H](O)c1cccc(O)c1 [phenylephrine] | inhibited the effects of CCL2 on cAMP production | did not induce | 5 ± 6.7 | 17 ± 29 | did not affect | inhibited chemotaxis over the complete range of chemokine concentrations | 50-55% | inhibit | 7.5 ± 7.7 | 2.4±0.14 | 3 | 130±12 | did not affect | significantly increased
did not affect | had no effect | Cc1ccc(N(CC2=NCCN2)c2cccc(O)c2)cc1 [phentolamine] | inhibited the effects of CCL2 on cAMP production | did not induce | 0.03 ± 0.08 | 0.2 ± 0.2 | did not affect | inhibited chemotaxis over the complete range of chemokine concentrations |  | inhibit | 2.7 ± 3.5 |  |  |  | did not affect | significantly increased
